Measured values from ChEMBL document CHEMBL3769383, “Cefsulodin Inspired Potent and Selective Inhibitors of mPTPB, a Virulent Phosphatase from Mycobacterium tuberculosis” (ACS Med Chem Lett, 2015).

Columns and labels:
[1] = Inhibition of Mycobacterium tuberculosis PTPB expressed in Escherichia coli BL21/DE3 cells using pNPP as substrate after 5 mins by spectrophotometry
BL21-DE3 = assay: Potency index, ratio of SPAA IC50 to compound IC50 for Mycobacterium tuberculosis PTPB expressed in Escherichia coli BL21/DE3 cells
[2] = Inhibition of Mycobacterium tuberculosis PTPB
[3] = Reversible competitive inhibition of Mycobacterium tuberculosis PTPB expressed in Escherichia coli BL21/DE3 cells using pNPP as substrate after 5 mins

O=C(C(c1ccccc1)S(=O)(=O)O)N1CCCCC1 (racemic)
IC50 [1]: 950 nM
Ratio IC50 (BL21-DE3): 180

NC(=O)c1cc[n+](CC2=C(C(=O)O)N3C(=O)[C@@H](NC(=O)[C@@H](c4ccccc4)S(=O)(=O)[O-])[C@H]3SC2)cc1 [CEFSULODIN SODIUM]
IC50 [2]: 16000 nM

O=C(Nc1ccc(-c2ccccc2)cc1)C(c1ccccc1)S(=O)(=O)O (racemic)
IC50 [1]: 196 nM

O=C(C(c1ccccc1)S(=O)(=O)O)N1CCC(Cc2ccccc2)CC1 (racemic)
IC50 [1]: 40 nM

O=C(NCCc1ccc(Cl)cc1Cl)C(c1ccccc1)S(=O)(=O)O (racemic)
IC50 [1]: 290 nM

NC(=O)C(c1ccccc1)S(=O)(=O)O (stereo not given)
IC50 [1]: 180000 nM
Ki [3]: 73400 nM

O=C(Nc1ccccc1)C(c1ccccc1)S(=O)(=O)O (racemic)
IC50 [1]: 1000 nM
Ratio IC50 (BL21-DE3): 180
